Data from PMC11323006, “Designing Coiled Coils for Heterochiral Complexation to Enhance Binding and Enzymatic Stability” (Biomacromolecules, 2024).
Square brackets hold non-standard residues; d marks the D form. Peptide text beside a SMILES is read from it.

Tests used:
Proteinase K [1] = target: Proteinase K (Parengyodontium album, UniProt P06873); assay: in vitro; settings: Proteinase K 5 μg/mL
Description: (§1) Degradation was monitored by HPLC. Solutions of individual coiled coils were prepared at 200 μM in 1× PBS and pH corrected to 7.40 ± 0.05 using 1–15 μL of 1 M NaOH. A stock solution of Proteinase K enzyme was prepared at 0.5 mg/mL. For each pair of peptides, 1.5 mL of each 200 μM solution was mixed, then 30 μL of 0.5 mg/mL Proteinase K was added to the 3 mL total mixed solution to obtain a final concentration of 5 μg/mL Proteinase K. Each degradation solution was stirred at 250 rpm for the duration of the experiment. For each time point, a 1 mL aliquot of degradation solution was added to an HPLC vial, a 100 μL injection was performed on HPLC, and the remaining 900 μL was returned to the bulk degradation solution. To normalize for slight shifts in elution time due to changing solvent or environmental conditions, a MATLAB script (included in SI) was used to align all K4^7 (for heptad degradation) or K3^11 (for hendecad degradation) peaks to the same elution time as the elution at t = 0 h.
(§2) Solutions of K4^7 and E4^7 (200 μM in 1× PBS at pH 7.4) were blended as homochiral (L-K4^7/L-E4^7) or heterochiral (D-K4^7/L-E4^7) mixtures. These blends were then incubated with 5 μg/mL Proteinase K, an enzyme known for its broad-spectrum activity and expected to cleave after the I, A, L, and E residues of these peptides.[40] Immediately after adding Proteinase K, as well as after 1, 3, 6, 12, and 24 h incubations, we used high performance liquid chromatography (HPLC) to monitor the degradation of the coiled coils.
(§3) We incubated solutions of homochiral (L-K3^11/L-E3^11) or heterochiral (D-K3^11/L-E3^11) hendecad coiled coils with 5 μg/mL Proteinase K as we did for the heptad coiled coils (200 μM each in 1× PBS at pH 7.4).

Proteinase K [2] = assay: in vitro; settings: isolated enzyme proteinase k
Description: as §1, §2, §3

[3] = cited from earlier work
Text: For example, 1:1 heterochir ...

[4] = pH 7.4, percent intact by peak area (Normalized Area)

Sequence of Proteinase K (Parengyodontium album, UniProt P06873) (P06873 106-384): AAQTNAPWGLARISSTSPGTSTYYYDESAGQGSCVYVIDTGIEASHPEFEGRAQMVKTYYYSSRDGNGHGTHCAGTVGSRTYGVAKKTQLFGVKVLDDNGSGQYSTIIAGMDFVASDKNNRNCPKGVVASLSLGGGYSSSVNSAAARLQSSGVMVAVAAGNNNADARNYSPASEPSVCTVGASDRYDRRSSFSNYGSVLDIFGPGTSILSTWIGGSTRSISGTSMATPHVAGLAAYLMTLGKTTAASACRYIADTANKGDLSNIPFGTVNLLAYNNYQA

CC[C@@H](C)[C@@H](NC(=O)[C@H](N)CCCCN)C(=O)N[C@H](C)C(=O)N[C@H](C)C(=O)N[C@H](CC(C)C)C(=O)N[C@H](CCCCN)C(=O)N[C@H](CCC(=O)O)C(=O)N[C@H](CCCCN)C(=O)N[C@@H](C(=O)N[C@H](C)C(=O)N[C@H](C)C(=O)N[C@H](CCCCN)C(=O)N[C@@H](C(=O)N[C@H](C)C(=O)N[C@H](C)C(=O)N[C@H](CC(C)C)C(=O)N[C@H](CCCCN)C(=O)N[C@H](CCC(=O)O)C(=O)N[C@H](CCCCN)C(=O)N[C@@H](C(=O)N[C@H](C)C(=O)N[C@H](C)C(=O)N[C@H](CCCCN)C(=O)N[C@@H](C(=O)N[C@H](C)C(=O)N[C@H](C)C(=O)N[C@H](CC(C)C)C(=O)N[C@H](CCCCN)C(=O)N[C@H](CCC(=O)O)C(=O)N[C@H](CCCCN)C(=O)N[C@@H](C(=O)N[C@H](C)C(=O)N[C@H](C)C(N)=O)[C@H](C)CC)[C@H](C)CC)[C@H](C)CC)[C@H](C)CC)[C@H](C)CC [D-K3^11] (H-[dK][dI][dA][dA][dL][dK][dE][dK][dI][dA][dA][dK][dI][dA][dA][dL][dK][dE][dK][dI][dA][dA][dK][dI][dA][dA][dL][dK][dE][dK][dI][dA][dA]-NH2)
stability in the heterochiral complex (in words) (Proteinase K [1]; heterochiral blend D-K3^11:L-E3^11, 1× PBS pH 7.4, HPLC, 30 h incubation): remains largely stable

CC[C@@H](C)[C@@H](NC(=O)[C@H](N)CCCCN)C(=O)N[C@H](C)C(=O)N[C@H](C)C(=O)N[C@H](CC(C)C)C(=O)N[C@H](CCCCN)C(=O)N[C@H](CCC(=O)O)C(=O)N[C@H](CCCCN)C(=O)N[C@@H](C(=O)N[C@H](C)C(=O)N[C@H](C)C(=O)N[C@H](CC(C)C)C(=O)N[C@H](CCCCN)C(=O)N[C@H](CCC(=O)O)C(=O)N[C@H](CCCCN)C(=O)N[C@@H](C(=O)N[C@H](C)C(=O)N[C@H](C)C(=O)N[C@H](CC(C)C)C(=O)N[C@H](CCCCN)C(=O)N[C@H](CCC(=O)O)C(=O)N[C@H](CCCCN)C(=O)N[C@@H](C(=O)N[C@H](C)C(=O)N[C@H](C)C(=O)N[C@H](CC(C)C)C(=O)N[C@H](CCCCN)C(=O)N[C@H](CCC(=O)O)C(N)=O)[C@H](C)CC)[C@H](C)CC)[C@H](C)CC [D-K4^7] (H-[dK][dI][dA][dA][dL][dK][dE][dK][dI][dA][dA][dL][dK][dE][dK][dI][dA][dA][dL][dK][dE][dK][dI][dA][dA][dL][dK][dE]-NH2)
remaining at 1 h, 100 μM (Proteinase K [2]; [4]): 97% | remaining at 3 h, 100 μM (Proteinase K [2]; [4]): 97% | degradation in the heterochiral blend (in words) (Proteinase K [1]; heterochiral blend D-K4^7:L-E4^7, 1× PBS pH 7.4, HPLC, up to 24 h): little to no degradation

CC[C@H](C)[C@H](NC(=O)[C@H](CCC(=O)O)NC(=O)[C@H](C)NC(=O)[C@H](C)NC(=O)[C@@H](NC(=O)[C@H](CCC(=O)O)NC(=O)[C@H](CCCCN)NC(=O)[C@H](CCC(=O)O)NC(=O)[C@H](CC(C)C)NC(=O)[C@H](C)NC(=O)[C@H](C)NC(=O)[C@@H](NC(=O)[C@H](CCC(=O)O)NC(=O)[C@H](C)NC(=O)[C@H](C)NC(=O)[C@@H](NC(=O)[C@H](CCC(=O)O)NC(=O)[C@H](CCCCN)NC(=O)[C@H](CCC(=O)O)NC(=O)[C@H](CC(C)C)NC(=O)[C@H](C)NC(=O)[C@H](C)NC(=O)[C@@H](NC(=O)[C@@H](N)CCC(=O)O)[C@@H](C)CC)[C@@H](C)CC)[C@@H](C)CC)[C@@H](C)CC)C(=O)N[C@@H](C)C(=O)N[C@@H](C)C(=O)N[C@@H](CC(C)C)C(=O)N[C@@H](CCC(=O)O)C(=O)N[C@@H](CCCCN)C(=O)N[C@@H](CCC(=O)O)C(=O)N[C@H](C(=O)N[C@@H](C)C(=O)N[C@@H](C)C(N)=O)[C@@H](C)CC [L-E3^11] (H-EIAALEKEIAAEIAALEKEIAAEIAALEKEIAA-NH2)
remaining at 3 h, 100 μM (Proteinase K [2]; [4]): 7% | remaining at 6 h, 100 μM (Proteinase K [2]; [4]): 0% | remaining at 12 h, 100 μM (Proteinase K [2]; [4]): 0% | remaining at 168 h, 100 μM (Proteinase K [2]; pH 7.4, percent of the peptide remaining): 23%

CC[C@H](C)[C@H](NC(=O)[C@H](CCC(=O)O)NC(=O)[C@H](CCCCN)NC(=O)[C@H](CCC(=O)O)NC(=O)[C@H](CC(C)C)NC(=O)[C@H](C)NC(=O)[C@H](C)NC(=O)[C@@H](NC(=O)[C@H](CCC(=O)O)NC(=O)[C@H](CCCCN)NC(=O)[C@H](CCC(=O)O)NC(=O)[C@H](CC(C)C)NC(=O)[C@H](C)NC(=O)[C@H](C)NC(=O)[C@@H](NC(=O)[C@H](CCC(=O)O)NC(=O)[C@H](CCCCN)NC(=O)[C@H](CCC(=O)O)NC(=O)[C@H](CC(C)C)NC(=O)[C@H](C)NC(=O)[C@H](C)NC(=O)[C@@H](NC(=O)[C@@H](N)CCC(=O)O)[C@@H](C)CC)[C@@H](C)CC)[C@@H](C)CC)C(=O)N[C@@H](C)C(=O)N[C@@H](C)C(=O)N[C@@H](CC(C)C)C(=O)N[C@@H](CCC(=O)O)C(=O)N[C@@H](CCCCN)C(N)=O [L-E4^7] (H-EIAALEKEIAALEKEIAALEKEIAALEK-NH2)
remaining at 3 h, 100 μM (Proteinase K [2]; pH 7.4): 71% | remaining at 6 h, 100 μM (Proteinase K [2]; pH 7.4): 12% | remaining at 12 h, 100 μM (Proteinase K [2]; pH 7.4): 1% | remaining at 24 h, 100 μM (Proteinase K [2]; pH 7.4): 0% | time within which the intact peak disappears completely (Proteinase K [1]; heterochiral blend D-K4^7:L-E4^7, 1× PBS pH 7.4, HPLC peak at 6.9 min): ≤ 12 h

CC[C@H](C)[C@H](NC(=O)[C@H](CCCCN)NC(=O)[C@H](C)NC(=O)[C@H](C)NC(=O)[C@@H](NC(=O)[C@H](CCCCN)NC(=O)[C@H](CCC(=O)O)NC(=O)[C@H](CCCCN)NC(=O)[C@H](CC(C)C)NC(=O)[C@H](C)NC(=O)[C@H](C)NC(=O)[C@@H](NC(=O)[C@H](CCCCN)NC(=O)[C@H](C)NC(=O)[C@H](C)NC(=O)[C@@H](NC(=O)[C@H](CCCCN)NC(=O)[C@H](CCC(=O)O)NC(=O)[C@H](CCCCN)NC(=O)[C@H](CC(C)C)NC(=O)[C@H](C)NC(=O)[C@H](C)NC(=O)[C@@H](NC(=O)[C@@H](N)CCCCN)[C@@H](C)CC)[C@@H](C)CC)[C@@H](C)CC)[C@@H](C)CC)C(=O)N[C@@H](C)C(=O)N[C@@H](C)C(=O)N[C@@H](CC(C)C)C(=O)N[C@@H](CCCCN)C(=O)N[C@@H](CCC(=O)O)C(=O)N[C@@H](CCCCN)C(=O)N[C@H](C(=O)N[C@@H](C)C(=O)N[C@@H](C)C(N)=O)[C@@H](C)CC [L-K3^11] (H-KIAALKEKIAAKIAALKEKIAAKIAALKEKIAA-NH2)
remaining at 1 h, 100 μM (Proteinase K [2]; pH 7.4): 77% | remaining at 3 h, 100 μM (Proteinase K [2]; pH 7.4): 11% | remaining at 6 h, 100 μM (Proteinase K [2]; pH 7.4): 0% | remaining at 12 h, 100 μM (Proteinase K [2]; pH 7.4): 0% | remaining at 30 h, 100 μM (Proteinase K [2]; pH 7.4): 0% | time to complete degradation (Proteinase K [1]; homochiral blend L-K3^11:L-E3^11, 1× PBS pH 7.4, HPLC): under 6 h

CC[C@H](C)[C@H](NC(=O)[C@H](CCCCN)NC(=O)[C@H](CCC(=O)O)NC(=O)[C@H](CCCCN)NC(=O)[C@H](CC(C)C)NC(=O)[C@H](C)NC(=O)[C@H](C)NC(=O)[C@@H](NC(=O)[C@H](CCCCN)NC(=O)[C@H](CCC(=O)O)NC(=O)[C@H](CCCCN)NC(=O)[C@H](CC(C)C)NC(=O)[C@H](C)NC(=O)[C@H](C)NC(=O)[C@@H](NC(=O)[C@H](CCCCN)NC(=O)[C@H](CCC(=O)O)NC(=O)[C@H](CCCCN)NC(=O)[C@H](CC(C)C)NC(=O)[C@H](C)NC(=O)[C@H](C)NC(=O)[C@@H](NC(=O)[C@@H](N)CCCCN)[C@@H](C)CC)[C@@H](C)CC)[C@@H](C)CC)C(=O)N[C@@H](C)C(=O)N[C@@H](C)C(=O)N[C@@H](CC(C)C)C(=O)N[C@@H](CCCCN)C(=O)N[C@@H](CCC(=O)O)C(N)=O [L-K4^7] (H-KIAALKEKIAALKEKIAALKEKIAALKE-NH2)
remaining at 3 h, 100 μM (Proteinase K [2]; [4]): 74% | remaining at 24 h, 100 μM (Proteinase K [2]; [4]): 0%

(PPG)10
solubility of heterochiral mixtures ([3]; heterochiral mixtures of triple helices): precipitate | solubility of homochiral triple helices ([3]; homochiral triple helices): soluble
